From patent US7504508B2, “PGD2 receptor antagonists for the treatment of inflammatory diseases” (Millennium Pharmaceuticals, Inc., priority 2002, dated 2009) come the findings set out here.

For the experiment, the target named is T1, cloned human CRTH2 receptor (Homo sapiens, UniProt Q9Y5Y4).
T1 construct: purchased Biosignal; host or cells: HEK-293 cells stably expressing human CRTH2 and G-alpha-16 (membranes)
T1 sequence (Q9Y5Y4 1-395): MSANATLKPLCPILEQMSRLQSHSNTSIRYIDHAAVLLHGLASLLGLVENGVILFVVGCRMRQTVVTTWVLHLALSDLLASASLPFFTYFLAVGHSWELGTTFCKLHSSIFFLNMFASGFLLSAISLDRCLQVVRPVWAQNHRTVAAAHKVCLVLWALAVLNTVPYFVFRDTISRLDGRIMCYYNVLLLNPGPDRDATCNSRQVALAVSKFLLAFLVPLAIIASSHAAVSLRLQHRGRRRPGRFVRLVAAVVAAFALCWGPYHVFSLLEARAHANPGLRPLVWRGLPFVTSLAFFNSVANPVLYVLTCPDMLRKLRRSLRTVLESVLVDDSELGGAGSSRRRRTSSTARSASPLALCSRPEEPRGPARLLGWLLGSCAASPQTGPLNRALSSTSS
Description: Radioligand membrane binding assay: inhibition of [3H] PGD2 binding to CRTH2 (Scintillation Proximity Assay). The following applies: inhibition of [3H] PGD2 binding to membranes of HEK-293 cells stably expressing human CRTH2; SPA; 10 point curve from 10 μM; room temperature, approximately 2 hours. Here is the method: This radioligand membrane binding assay evaluates the ability of compounds to inhibit [^3H] Prostaglandin D2 (PGD2) binding to the cloned human CRTH2 receptor stably expressed in HEK-293 cells (expressing human CRTh2 receptor and α subunit or the heteronimeric G protein 16 were prepared by Biosignal Company) using Scintillation Proximity Assay.
A binding buffer containing 50 mM Tris-HCl (pH 7.5), 5 mM MgCl2 and 1 mM EDTA was prepared immediately prior to performing the assay. A bead/membrane solution at twice the final assay concentration comprising membranes (membranes bought from Biosignal) from the HEK-293 cells cloned to express CRTH2 receptor bound to and [3H] PGD2 at twotimes the final assay concentration were prepared and stored on ice before adding to wells. Cold PGD2 at twenty times the final assay concentration was prepared and stored on ice before adding to wells defining non-specific binding (NSB) corning plates #3653 were used for this assay.
10 mM stock concentrations of compounds in 100% DMSO were prepared and stored at room temperature. A 10 point concentration response curve was then constructed for each compound, starting at 10 μM (final assay concentration). The compounds were prepared at 40 times final assay concentrations with nine consequent-3-fold dilutions.
0.1 μl of each concentration of compound were added to the appropriate well of the 384 plate and 2 μl of cold PGD2 was added into the wells defining NSB. 20 μl of [^3H] PGD2 and then 20 μl of 2× of bead/membrane solution were then added to each well.
The plates were allowed to incubate at room temperature for approximately 2 hours and then counted on Packard Topcount using SPA tritium protocol for 1 minute/well.
The percent inhibition of PGD2 binding (PGD2 used at the KD value or lower) to the HEK-293 cell membranes was determined, the assay was always run as duplicate for n=1 for a total of n=2.
(In general: In a scintillation proximity assay essentially only radioactivity close to the scintillant gives light.)
Broadly, the Ki is the equilibrium dissociation constant of an inhibitor or competing ligand from its target. A high value points to lower affinity. For the compound `CCC(=O)N(c1ccc(C(F)(F)F)cc1)[C@@H]1C[C@H](C)N(C(=O)c2ccc(F)cc2)c2ccccc21` (racemic) [Compound B-13, (±)-Cis-N-[1-(4-Fluoro-benzoyl)-2-methyl-1,2,3,4-tetrahydro-quinolin-4-yl]-N-(4-trifluoromethyl-phenyl)-propionamide], the Ki is below 10 µM.

Compound `CCC(=O)N(c1ccc(Cl)cc1)[C@@H]1C[C@H](c2ccccc2)N(C(=O)c2ccc(F)cc2)c2ccccc21` (racemic) [Compound B-108, (±)-Cis-N-(4-chloro-phenyl)-N-[1-(4-fluoro-benzoyl)-2-phenyl-1,2,3,4-tetrahydro-quinolin-4-yl]-propionamide] yielded a Ki below 10 µM.

The compound `CCC(=O)N(c1ccc(Cl)cc1)[C@@H]1C[C@H](Cc2ccccc2)N(C(=O)c2ccc(F)cc2)c2ccccc21` (racemic) [Compound B-112, (±)-Cis-N-[2-benzyl-1-(4-fluoro-benzoyl)-1,2,3,4-tetrahydro-quinolin-4-yl]-N-(4-chloro-phenyl)-propionamide] displayed a Ki below 10 µM.

`C[C@H]1C[C@@H](N(C(=O)COc2ccccc2)c2ccccc2)c2ccccc2N1C(=O)c1ccc(F)cc1` (racemic) [Compound A-72, (±)-Cis-N-[1-(4-fluoro-benzoyl)-2-methyl-1,2,3,4-tetrahydro-quinolin-4-yl]-2-phenoxy-N-phenyl-acetamide] showed an inhibitory constant (Ki) below 10 µM.

On to `CCC(=O)N(c1ccc(Cl)cc1)[C@@H]1C[C@H](C)N(C(=O)c2ccc(F)cc2)c2ccc(OCCN(CC)CC)cc21` (racemic) [Compound B-63, (±)-Cis-N-(4-Chloro-phenyl)-N-[6-(2-diethylamino-ethoxy)-1-(4-fluoro-benzoyl)-2-methyl-1,2,3,4-tetrahydro-quinolin-4-yl]-propionamide], for which the inhibition constant (Ki) was below 10 µM.

The compound `CC(=O)N(c1ccccc1)[C@H]1C[C@@H](C)N(C(=O)c2ccno2)c2ccccc21` [Compound A-70, (2R,4S)-cis-N-[1-(isoxazole-5-carbonyl)-2-methyl-1,2,3,4-tetrahydro-quinolin-4-yl]-N-phenyl-acetamide] registered a Ki below 10 µM.

In the case of `CC(=O)N(c1ccc(Cl)cc1)[C@@H]1C[C@H](C)N(C(=O)c2ccc(/C=C/C(=O)O)cc2)c2ccccc21` [Compound C-33, (2S,4R)-3-(4-{4-[Acetyl-(4-chloro-phenyl)-amino]-2-methyl-3,4-dihydro-2H-quinoline-1-carbonyl}-phenyl)-acrylic acid], the inhibitory constant (Ki) was below 10 µM.

`CCC(=O)N(c1ccccc1)[C@@H]1C[C@H](C)N(C(=O)c2ccc(-c3ccc([N+](=O)[O-])cc3)o2)c2ccccc21` (racemic) [Compound A-144, (±)-Cis-N-{2-methyl-1-[5-(4-nitro-phenyl)-furan-2-carbonyl]-1,2,3,4-tetrahydro-quinolin-4-yl}-N-phenyl-propionamide] registered a Ki below 10 µM.

For the compound `CCC(=O)N(c1ccc(Cl)cc1)[C@@H]1C[C@H](C(F)(F)F)N(C(=O)c2ccc(F)cc2)c2ccc(OC)cc21` (racemic) [Compound B-109, (±)-Cis-N-(4-chloro-phenyl)-N-[1-(4-fluoro-benzoyl)-6-methoxy-2-trifluoromethyl-1,2,3,4-tetrahydro-quinolin-4-yl]-propionamide], the inhibition constant Ki is below 10 µM.

In turn, `CCC(=O)N(c1ccc(Cl)cc1)[C@@H]1C[C@H](C)N(C(=O)c2ccc(F)cc2)c2ccc(N3CCOCC3)cc21` (racemic) [Compound B-70, (±)-Cis-N-(4-chloro-phenyl)-N-[1-(4-fluoro-benzoyl)-2-methyl-6-morpholin-4-yl-1,2,3,4-tetrahydro-quinolin-4-yl]-propionamide] had an inhibition constant (Ki) below 10 µM.

Consider `CC(=O)N(c1ccccc1)[C@H]1C[C@@H](C)N(C(=O)c2ccc(F)cc2)c2ccccc21` [Compound A-58], for which the Ki is below 60 µM.

Consider `CC(=O)N(c1ccccc1)[C@@H]1C[C@H](C)N(C(=O)c2sc(-c3ccccc3)nc2C)c2ccccc21` (racemic) [Compound A-16, (±)-Cis-N-[2-methyl-1-(4-methyl-2-phenyl-thiazole-5-carbonyl)-1,2,3,4-tetrahydro-quinolin-4-yl]-N-phenyl-acetamide], for which the Ki is below 10 µM.

Turning to `CC(=O)N(c1ccccc1)[C@@H]1C[C@H](C)N(C(=O)c2c(F)cc(F)cc2F)c2ccccc21` (racemic) [Compound A-24, (±)-Cis-N-[2-methyl-1-(2,4,6-trifluoro-benzoyl)-1,2,3,4-tetrahydro-quinolin-4-yl]-N-phenyl-acetamide], the inhibitory constant (Ki) was below 10 µM.

`CCC(=O)N(c1ccc(Cl)cc1)[C@@H]1C[C@H](CCc2ccccc2)N(C(=O)c2ccc(F)cc2)c2ccccc21` (racemic) [Compound B-97, (±)-Cis-N-(4-chloro-phenyl)-N-[1-(4-fluoro-benzoyl)-2-phenethyl-1,2,3,4-tetrahydro-quinolin-4-yl]-propionamide] yielded a Ki below 10 µM.

Compound `COc1cccc(C(=O)N2c3c(C)cccc3[C@H](N(C(C)=O)c3ccc(Cl)cc3)C[C@@H]2C)c1` (racemic) [Compound B-74, (±)-Cis-N-(4-chloro-phenyl)-N-[1-(3-methoxy-benzoyl)-2,8-dimethyl-1,2,3,4-tetrahydro-quinolin-4-yl]-acetamide] gave a Ki below 10 µM.

For `C[C@H]1C[C@@H](N(C(=O)CCc2ccccc2)c2ccccc2)c2ccccc2N1C(=O)c1ccc(F)cc1` (racemic) [Compound A-73, (±)-Cis-N-[1-(4-fluoro-benzoyl)-2-methyl-1,2,3,4-tetrahydro-quinolin-4-yl]-3,N-diphenyl-propionamide], the inhibitory constant (Ki) is below 10 µM.

The compound `CC(=O)N(c1ccc(Cl)cc1)[C@H]1C[C@@H](C)N(C(=O)c2cccs2)c2ccccc21` [Compound B-7, (2R,4S)-cis-N-(4-chloro-phenyl)-N-[2-methyl-1-(thiophene-2-carbonyl)-1,2,3,4-tetrahydro-quinolin-4-yl]-acetamide] came in with an inhibition constant Ki below 10 µM.

Compound `CC(=O)N(c1ccc(Cl)cc1)[C@H]1C[C@@H](C)N(C(=O)c2ccc(C)s2)c2ccccc21` [Compound B-28, (2R,4S)-cis-N-(4-Chloro-phenyl)-N-[2-methyl-1-(5-methyl-thiophene-2-carbonyl)-1,2,3,4-tetrahydro-quinolin-4-yl]-acetamide] yielded a Ki below 10 µM.

For `COc1ccc(C(=O)N2c3ccccc3[C@H](N(C(C)=O)c3cccc(C(=O)O)c3)C[C@@H]2C)cc1` (racemic) [Compound B-40, (±)-Cis-3-{acetyl-[1-(4-methoxy-benzoyl)-2-methyl-1,2,3,4-tetrahydro-quinolin-4-yl]-amino}-benzoic acid], the inhibition constant (Ki) was below 10 µM.

Regarding `C=CCC(=O)N(c1ccccc1)[C@@H]1C[C@H](C)N(C(=O)c2ccc(F)cc2)c2ccccc21` (racemic) [Compound A-147, (±)-Cis-but-3-enoic acid [1-(4-fluoro-benzoyl)-2-methyl-1,2,3,4-tetrahydro-quinolin-4-yl]-phenyl-amide], the inhibition constant (Ki) is below 10 µM.

Compound `CCC(=O)N(c1ccc(Cl)cc1)[C@@H]1C[C@H](C(F)(F)F)N(C(=O)c2ccco2)c2ccc(OC)cc21` (racemic) [Compound B-111, (±)-Cis-N-(4-chloro-phenyl)-N-[1-(furan-2-carbonyl)-6-methoxy-2-trifluoromethyl-1,2,3,4-tetrahydro-quinolin-4-yl]-propionamide] gave a Ki below 10 µM.

As for `CC(=O)N(c1ccccc1)[C@@H]1C[C@H](C)N(C(=O)c2cc(F)c(F)c(F)c2)c2ccccc21` (racemic) [Compound A-20, (±)-Cis-N-[2-methyl-1-(3,4,5-trifluoro-benzoyl)-1,2,3,4-tetrahydro-quinolin-4-yl]-N-phenyl-acetamide], the inhibition constant (Ki) was below 10 µM.

Regarding `COc1ccc(C(=O)N2c3ccccc3[C@H](N(C(C)=O)c3cccc(CN)c3)C[C@@H]2C)cc1` [Compound C-38, (2S,4R)-N-(3-Aminomethyl-phenyl)-N-[1-(4-methoxy-benzoyl)-2-methyl-1,2,3,4-tetrahydro-quinolin-4-yl]-acetamide], the Ki is below 10 µM.

For `CCC(=O)N(c1ccc(Cl)cc1)[C@@H]1C[C@H](CO)N(C(=O)c2ccc(F)cc2)c2ccccc21` (racemic) [Compound B-105, (±)-Cis-N-(4-chloro-phenyl)-N-[1-(4-fluoro-benzoyl)-2-hydroxymethyl-1,2,3,4-tetrahydro-quinolin-4-yl]-propionamide], the inhibition constant (Ki) was below 10 µM.
